Data reported in US11034980B2, “Microbial engineering for the production of isoprenoids” (Massachusetts Institute of Technology, priority 2018, dated 2021).
Like-named read-outs stand apart in the source and are kept apart here.

Tests used:
[1] = test system: multi-enzyme system (CK, IPK, IDI, IspA, GGPPS, TDS); assay: Titration of cofactors and potential inhibitors in the taxadiene multi-enzyme system; type: biochemical
Experimental: The multi-enzyme system reactions were carried out in 50 mM ammonium bicarbonate (pH 7.4) with 10 mM MgCl2, 2 mM MnCl2, 0.05% (w/v) Tween 20, 10 mM ATP, and 5 mM isoprenol at 30° C. unless otherwise stated. The solution in glass GC vials (Agilent) were overlaid with 1/10 volume of dodecane to entrap the volatile isoprenoids. An initial estimated optimal concentration of each enzyme was calculated using the rates determined by individual enzyme assays. The final optimized enzyme concentrations were determined to be 25 μg/mL CK, 15 μg/mL IPK, 25.4 μg/mL IDI, 37.15 μg/mL IspA, 8.15 μg/mL GGPPS, and 25 μg/mL for TDS.
A possible explanation for such inhibitions could be that the enzymes would salt out when a combined amount of >20 mM ATP+ADP (sodium salts) are added to the mixture. […] Since 8 moles of ATP are necessary for the synthesis of 1 mole of taxadiene, salting out of proteins by high concentrations of ATP sodium salt limits that maximum titer of taxadiene that can be achieved using this system making ATP the limiting reagent. […] Furthermore, the consumption of isoprenol in this process could not be determined due to the high variability the utilized GC-FID assay which could not accurately measure such small changes in isoprenol concentration.

[2] = biological target: Farnesyl pyrophosphate synthase (IspA) (Escherichia coli, UniProt P22939); details: cited from earlier work; for Km: Ref Ku et al., 2005, Weaver et al., 2015
[3] = biological target: T1, isopentenyl phosphate kinase (IPK) (Arabidopsis thaliana, UniProt Q8H1F7); assay: IPK kinetics by ATP consumption, PK-LDH coupled NADH assay; type: biochemical; details: 10 mM ATP, 30° C., pH 7.4
T1 construct: Arabidopsis thaliana (AAN12957.1), codon optimized; made in house; host or cells: E. coli BL21 (DE3)
T1 sequence (Q8H1F7 1-332): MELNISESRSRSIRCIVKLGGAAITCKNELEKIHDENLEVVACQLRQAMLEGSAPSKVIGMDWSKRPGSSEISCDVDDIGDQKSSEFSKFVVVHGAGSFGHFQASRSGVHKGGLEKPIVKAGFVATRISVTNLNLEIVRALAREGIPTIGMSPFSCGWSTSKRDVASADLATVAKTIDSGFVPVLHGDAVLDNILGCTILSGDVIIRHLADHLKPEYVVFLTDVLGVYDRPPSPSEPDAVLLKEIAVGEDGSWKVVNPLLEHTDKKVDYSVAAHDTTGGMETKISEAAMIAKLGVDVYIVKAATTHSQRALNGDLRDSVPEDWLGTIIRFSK
Experimental: A single colony from each strain containing one plasmid for the expression of a single enzyme was inoculated into 5 mL of sterile LB media (BD Sciences) with kanamycin and grown overnight at 37° C. One milliliter was then inoculated into a 1 L flask containing 200 mL of sterile SOB media (AMERSCO) with kanamycin. The culture was grown at 30° C. until an optical density (OD) of 0.4-0.6 (λ=600 nm). At this point protein production was induced by the addition of IPTG for a final concentration of 0.1 mM and continued at 30° C. for 3 h. Cells were harvested by centrifugation at 3750 rpm in an Allegra X12R centrifuge (Beckman-Coulter). The supernatant was removed and the cell pellets were frozen at −20° C. until purification. Proteins were visualized by SDS-PAGE performed accordingly to the manufacturer's guidelines (Bio-rad). Gradient (4-20%) gels were purchased from Biorad, as were the Kaleidoscope pre-stained protein ladder, Laemmli 4× sample buffer, Tris-glycine-SDS buffer, and mini-protean electrophoresis chambers. Gels were stained using Instant-Blue (Expedeon). Protein concentrations were very roughly estimated from the gel using Image J (NIH) in order to determine an appropriate amount of resin for purification. Protein Purification All purification steps were performed in a single day on ice and in a cold room when possible. Cell pellets were thawed and resuspended in 30 mL of NPI-10 buffer (50 mM NaH2PO4, 300 mM NaCl, 10 mM imidazole, pH 8.0) and supplemented with 0.5 mM PMSF immediately prior to cell lysis. Cells were lysed by 2-3 passages through an EmulsiFlex-C5 high-pressure homogenizer (Avestin). Lysates were then centrifuged at 4 C for 15 min to remove cellular debris. The clarified lysate was loaded onto a Ni-NTA resin (Gold Bio, capacity 50 mg/mL) which was housed in a gravity column (Thermofisher) and was pre-equilibrated with 10 column volumes (CV) of NPI-10 buffer. The column was then washed with 10 CV of NPI-20 buffer (20 mM imidazole). The enzyme was then eluted from the column by 3 CV using NPI-250 buffer (250 mM imidazole). Enzymes were then exchanged into 50 mM Tris-HCl pH 7.5 using 10 kDa Microseps (Millipore) by centrifugation and repeated buffer exchanges until the imidazole was calculated to be under 1 mM. […] Enzyme concentration was determined using a bicinchoninic acid (BCA) assay kit from Pierce using bovine serum albumin as a standard (BSA). […] The kinetics for CK were previously determined as described. The kinetics for IPK were determined by ATP consumption using a pyruvate kinase (PK) lactate dehydrogenase (LDH) coupled assay (FIGS. 16A & 16B). […] NADH was made fresh each time and the appropriate concentration was determined by constructing a standard curve using a SpectraMax M3 and selecting the highest value in the linear range. […]

[4] = test system: Geranylgeranyl pyrophosphate synthase (GGPPS); details: reported elsewhere (Hefner et al., 1998); cited from earlier work
[5] = biological target: T2, choline kinase from Saccharomyces cerevisiae (ScCK) (Saccharomyces cerevisiae, UniProt P20485); details: Table 6, Ref Chatzivasileiou et al., 2018; cited from earlier work
T2 construct: S. cerevisiae (AAA34499.1), codon optimized; made in house; host or cells: E. coli BL21 (DE3)
T2 sequence (P20485 1-582): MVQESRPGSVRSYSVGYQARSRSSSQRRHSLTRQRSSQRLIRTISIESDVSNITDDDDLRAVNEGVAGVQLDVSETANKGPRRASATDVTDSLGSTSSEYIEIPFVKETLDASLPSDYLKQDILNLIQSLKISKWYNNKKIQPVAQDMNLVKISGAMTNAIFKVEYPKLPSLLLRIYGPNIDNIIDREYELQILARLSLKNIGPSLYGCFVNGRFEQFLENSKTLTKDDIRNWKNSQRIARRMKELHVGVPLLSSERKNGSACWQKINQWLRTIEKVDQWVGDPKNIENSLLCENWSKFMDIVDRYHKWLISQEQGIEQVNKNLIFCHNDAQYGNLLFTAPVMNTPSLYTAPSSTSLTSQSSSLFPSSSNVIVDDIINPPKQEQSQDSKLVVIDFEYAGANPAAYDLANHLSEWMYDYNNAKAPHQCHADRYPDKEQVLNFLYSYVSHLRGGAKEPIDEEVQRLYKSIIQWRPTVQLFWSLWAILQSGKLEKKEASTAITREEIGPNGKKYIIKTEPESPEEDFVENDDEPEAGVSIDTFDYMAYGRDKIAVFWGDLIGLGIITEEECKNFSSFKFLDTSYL

[6] = substrate: CC(C)=CCO; assay: In vitro kinetic assay of purified choline kinase with isoprenol or prenol (LC-MS/MS); type: biochemical, Saccharomyces cerevisiae; details: other: 37° C., fixed ATP concentration, purified ScCK, pH 7.5
Experimental: (§1) Enzyme assays for screening of isopentenol kinase activity was performed as follows. The purified enzymes were added to the enzyme assay master mix for a final concentration of 2 mM ATP, 10 mM MgCl2, 50 mM NH4HCO3 pH 7.5, and 600 μM isoprenol or prenol. They were incubated overnight at 37° C. The reactions were stopped using 5 volumes of ice-cold acetonitrile and centrifuged to remove precipitated proteins using a plate adaptor at 3273×g for 15 min. The supernatant was transferred to a new microplate and frozen at −80° C. The liquid was removed by a 4.5 L lyophilizer (Labconco) and the samples were resuspended in an equal volume of water and centrifuged again prior to quantification using LC-MS/MS.
(§2) Kinetic enzyme assays were conducted using the standard assay conditions described above with the following changes. First, the linear range of the assay was determined over a 90 min period (FIG. 3). Initial velocity appeared linear over this period. Therefore, kinetic assays were quenched after 30 min. For assays at different temperatures, the standard reaction mixture was used while the temperature was varied using a water bath. […] Afterwards, reactions were performed in the standard reaction mixture with NH4HCO3 buffer was adjusted to the appropriate pH. For Michaelis-Menten kinetics, only the concentration of isoprenol or prenol was varied between 1.5-50 μM.

[7] = substrate: C=C(C)CCO; assay: as above; type: biochemical, Saccharomyces cerevisiae; details: other: 37° C., fixed ATP concentration, purified ScCK, pH 7.5
Experimental: as §1, §2

Sequence of Farnesyl pyrophosphate synthase (IspA) (P22939 whole entry): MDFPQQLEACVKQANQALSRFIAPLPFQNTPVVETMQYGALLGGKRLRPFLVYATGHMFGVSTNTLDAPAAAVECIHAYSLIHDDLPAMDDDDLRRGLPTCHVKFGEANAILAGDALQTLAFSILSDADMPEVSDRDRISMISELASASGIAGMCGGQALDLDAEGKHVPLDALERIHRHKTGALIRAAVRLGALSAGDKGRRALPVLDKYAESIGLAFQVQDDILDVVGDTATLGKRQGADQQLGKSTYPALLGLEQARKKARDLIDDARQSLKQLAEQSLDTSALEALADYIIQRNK

Question: Which “effect on taxadiene production” value ([1]; ADP 0-20 mM in the presence of 10 mM ATP) does the source give for `Nc1ncnc2c1ncn2[C@@H]1O[C@H](COP(=O)(O)OP(=O)(O)O)[C@@H](O)[C@H]1O` [ADP, adenosine diphosphate] here?
Answer: Its value is “Some inhibition”.

Question: For `Nc1ncnc2c1ncn2[C@@H]1O[C@H](COP(=O)(O)OP(=O)(O)OP(=O)(O)O)[C@@H](O)[C@H]1O` [ATP, adenosine triphosphate], which “ATP levels that completely inhibited IspA” value ([2]; Chen et al. (2017)) is on record?
Answer: Its value is “above 5 mM”.

Question: What about the “effect on taxadiene production” value ([1]; 20 mM ATP) of the same molecule?
Answer: The value was “completely inhibited”.

Question: With `CC(C)=CCOP(=O)(O)O` [DMAP, dimethylallyl monophosphate] as the molecule, how does the Km [3] read?
Answer: The Km was 35.5 µM.

Question: What about the kcat [3] of the same molecule?
Answer: The kcat was 53.1 S^−1.

Question: For `CC(C)=CCOP(=O)(O)OP(=O)(O)O` [DMAPP, dimethylallyl pyrophosphate], which Km ([2]; reaction IPP + DMAPP) is on record?
Answer: The Km was 1.3 µM.

Question: For `CC(C)=CCC/C(C)=C/CC/C(C)=C/COP(=O)(O)OP(=O)(O)O` [FPP, farnesyl diphosphate], which Km [4] is on record?
Answer: Its Km is 7 µM.

Question: Which Km ([2]; reaction IPP + GPP) does the source give for `CC(C)=CCC/C(C)=C/COP(=O)(O)OP(=O)(O)O` [GPP, geranyl diphosphate] here?
Answer: Its Km is 10.3 µM.

Question: Which Km [5] does the source give for `C=C(C)CCO` [Isoprenol, 3-methyl-3-buten-1-ol] here?
Answer: Its Km is 4540 µM.

Question: And the kcat [5]?
Answer: The kcat was 14.7 S^−1.

Question: With `CC(C)=CCO` [Prenol, 3-methyl-2-buten-1-ol] as the molecule, how does the Km [5] read?
Answer: Its Km is 1110 µM.

Question: And the kcat [5]?
Answer: The kcat was 1.13 S^−1.

B1: choline kinase from Saccharomyces cerevisiae (ScCK) (Saccharomyces cerevisiae S288C) (protein)
chain: MVQESRPGSVRSYSVGYQARSRSSSQRRHSLTRQRSSQRLIRTISIESDVSNITDDDDLRAVNEGVAGVQLDVSETANKGPRRASATDVTDSLGSTSSEYIEIPFVKETLDASLPSDYLKQDILNLIQSLKISKWYNNKKIQPVAQDMNLVKISGAMTNAIFKVEYPKLPSLLLRIYGPNIDNIIDREYELQILARLSLKNIGPSLYGCFVNGRFEQFLENSKTLTKDDIRNWKNSQRIARRMKELHVGVPLLSSERKNGSACWQKINQWLRTIEKVDQWVGDPKNIENSLLCENWSKFMDIVDRYHKWLISQEQGIEQVNKNLIFCHNDAQYGNLLFTAPVMNTPSLYTAPSSTSLTSQSSSLFPSSSNVIVDDIINPPKQEQSQDSKLVVIDFEYAGANPAAYDLANHLSEWMYDYNNAKAPHQCHADRYPDKEQVLNFLYSYVSHLRGGAKEPIDEEVQRLYKSIIQWRPTVQLFWSLWAILQSGKLEKKEASTAITREEIGPNGKKYIIKTEPESPEEDFVENDDEPEAGVSIDTFDYMAYGRDKIAVFWGDLIGLGIITEEECKNFSSFKFLDTSYL
notes: S. cerevisiae (AAA34499.1), codon optimized; made in house; host or cells: E. coli BL21 (DE3)
Question: With B1 as the molecule, how does the Km [6] read?
Answer: The Km was 1113 µM.

Question: And the kcat [6]?
Answer: The kcat was 1.1 s⁻¹.

Question: What about the Km [7] of the same molecule?
Answer: The Km was 4539 µM.

Question: What about the kcat [7] of the same molecule?
Answer: Its kcat is 14.7 s⁻¹.
